What was measured:
[1] = biological target: T1, yeast Gal4-DNA binding domain fused to the ligand binding domain of human RORγ (Homo sapiens, UniProt P51449); experiment: RORγ Reporter Assay (Gal4); format: cell-based; settings: values given as lower bounds of ranges; for Gal4 activity range @ 0.1 μM (% inhibition): RORγ Reporter Assay (Gal4) at 0.1 μM; for Gal4 activity range @ 1 μM (% inhibition): RORγ Reporter Assay (Gal4) at 1 μM
T1 construct: host or cells: HEK293t
T1 sequence (P51449 269-508 limits assumed): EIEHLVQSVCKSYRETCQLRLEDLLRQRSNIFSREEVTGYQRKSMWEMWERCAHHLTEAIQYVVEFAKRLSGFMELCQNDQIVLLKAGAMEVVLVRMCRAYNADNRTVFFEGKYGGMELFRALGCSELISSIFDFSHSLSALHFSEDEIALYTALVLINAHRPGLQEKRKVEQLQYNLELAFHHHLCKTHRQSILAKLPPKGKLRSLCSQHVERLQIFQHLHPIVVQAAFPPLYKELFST
Outline: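 HEK293t reporter cells expressing the hybrid, with Gal4-UAS-driven firefly luciferase, treated in triplicate with compound at 1,000 nM and 100 nM (0.1% DMSO) in medium with 10% charcoal-stripped FBS for 24 h at 37 °C. Luminescence read; percent reduction of RLU calculated relative to vehicle.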

[2] = biological target: T2, human RORγt (Ligand Binding Domain) (Homo sapiens, UniProt P51449); experiment: Fluorescence Polarization (FP) Assay; settings: Fluorescence Polarization (FP) Assay; values given as upper bounds of activity ranges; read-out: FP activity range
T2 construct: purchased Crelux (Planegg, Germany) batch no PC5032-1
T2 sequence (P51449 269-508 limits assumed): T1 sequence (P51449 269-508 limits assumed)
Outline: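 In vitro FP binding assay monitoring ligand binding within the ligand binding pocket. Probe is a TAMRA-labelled RORγt ligand (MW 910 g/mole); DMSO served as negative control.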

Compound | Gal4 activity range @ 0.1 μM (% inhibition) [1] [% inhibition] | Gal4 activity range @ 1 μM (% inhibition) [1] [% inhibition] | IC50 [2] [µM]
Cc1ccc(CNc2ncnc(N3CCC[C@@H]3c3ccc(C(F)(F)F)cc3F)c2F)cn1 [Example 210, 5-fluoro-6-[(2R)-2-[2-fluoro-4-(trifluoromethyl)phenyl]pyrrolidin-1-yl]-N-[(6-methyl-3-pyridyl)methyl]pyrimidin-4-amine] | >50 | >80 | < 1
Cc1ccc(CNc2ncnc(N3CC(C)CC3c3ccc(C(F)(F)F)cc3)c2F)cn1 (centres unmarked) [Example 211, 5-fluoro-N-[(6-methyl-3-pyridyl)methyl]-6-[4-methyl-2-[4-(trifluoromethyl)phenyl]pyrrolidin-1-yl]pyrimidin-4-amine] | >0 | >50 | < 1
OC1(CNc2ncnc(N3CCC[C@@H]3c3ccc(C(F)(F)F)cc3)c2F)CCOC1 (stereo partly drawn) [Example 220, 3-[[[5-fluoro-6-[(2R)-2-[4-(trifluoromethyl)phenyl]pyrrolidin-1-yl]pyrimidin-4-yl]amino]methyl]tetrahydrofuran-3-ol] | >20 | >80 | < 0.5
OCCC1(CNc2ncnc(N3CCC[C@@H]3c3ccc(C(F)(F)F)cc3)c2F)CCOCC1 [Example 221, 2-[4-[[[5-fluoro-6-[(2R)-2-[4-(trifluoromethyl)phenyl]pyrrolidin-1-yl]pyrimidin-4-yl]amino]methyl]tetrahydropyran-4-yl]ethanol] | >50 | >80 | < 0.5
O=S1(=O)CCC(CNc2ncnc(N3CCC[C@@H]3c3ccc(C(F)(F)F)cc3)c2F)CC1 [Example 222, N-[(1,1-dioxothian-4-yl)methyl]-5-fluoro-6-[(2R)-2-[4-(trifluoromethyl)phenyl]pyrrolidin-1-yl]pyrimidin-4-amine] | >20 | >80 | < 2
O=S1(=O)CCC(O)(CNc2ncnc(N3CCC[C@@H]3c3ccc(C(F)(F)F)cc3)c2F)CC1 [Example 223, 4-[[[5-fluoro-6-[(2R)-2-[4-(trifluoromethyl)phenyl]pyrrolidin-1-yl]pyrimidin-4-yl]amino]methyl]-1,1-dioxo-thian-4-ol] | >50 | >80 | < 0.5
O=S(=O)(NC1CC1)c1ccc(CNc2ncnc(N3CCC[C@@H]3c3ccc(C(F)(F)F)cc3)c2F)cc1 [Example 224, N-cyclopropyl-4-[[[5-fluoro-6-[(2R)-2-[4-(trifluoromethyl)phenyl]pyrrolidin-1-yl]pyrimidin-4-yl]amino]methyl]benzenesulfonamide] | >80 | >80 | < 0.5
OCC1CCC(CNc2ncnc(N3CCC[C@@H]3c3ccc(C(F)(F)F)cc3)c2F)CC1 (stereo partly drawn) [Example 225, [4-[[[5-fluoro-6-[(2R)-2-[4-(trifluoromethyl)phenyl]pyrrolidin-1-yl]pyrimidin-4-yl]amino]methyl]cyclohexyl] methanol] | >80 | >80 | < 0.5
NC(=O)c1ccc(CNc2ncnc(N3CCC[C@@H]3c3ccc(C(F)(F)F)cc3)c2F)cc1 [Example 226, 4-[[[5-fluoro-6-[(2R)-2-[4-(trifluoromethyl)phenyl]pyrrolidin-1-yl]pyrimidin-4-yl]amino]methyl]benzamide] |  | >50 | < 10
OCc1ccc(CNc2ncnc(N3CCC[C@@H]3c3ccc(C(F)(F)F)cc3)c2F)cc1 [Example 227, [4-[[[5-fluoro-6-[(2R)-2-[4-(trifluoromethyl)phenyl]pyrrolidin-1-yl]pyrimidin-4-yl]amino]methyl]phenyl]methanol] | >80 | >80 | < 0.5
OCC1(CNc2ncnc(N3CCC[C@@H]3c3ccc(C(F)(F)F)cc3)c2F)COC1 [Example 228, [3-[[[5-fluoro-6-[(2R)-2-[4-(trifluoromethyl)phenyl]pyrrolidin-1-yl]pyrimidin-4-yl]amino]methyl]oxetan-3-yl]methano1] | >20 | >80 | < 0.5
CC1(c2ccc(C(F)(F)F)cc2)CCCN1c1ncnc(NCc2ccc(CC(N)=O)cc2)c1F (centres unmarked) [Example 229, 2-[4-[[[5-fluoro-6-[2-methyl-2-[4-(trifluoromethyl)phenyl]pyrrolidin-1-yl]pyrimidin-4-yl]amino]methyl]phenyl]acetamide] | >50 | >80 | < 0.5

Further lines, results first:

Gal4 activity range @ 0.1 μM (% inhibition) [1] [% inhibition] | Gal4 activity range @ 1 μM (% inhibition) [1] [% inhibition] | IC50 [2] [µM] | Compound
>50 | >80 | < 0.5 | NC(=O)Cc1ccc(CNc2ncnc(N3CCOC[C@@H]3c3ccc(OC(F)(F)F)cc3)c2F)cc1 [Example 230, 2-[4-[[[5-fluoro-6-[(3S)-3-[4-(trifluoromethoxy)phenyl]morpholin-4-yl]pyrimidin-4-yl]amino]methyl]phenyl]acetamide]
>50 | >80 | < 0.5 | NC(=O)Cc1ccc(CNc2ncnc(N3CC(F)(F)CC3c3ccc(C(F)(F)F)cc3)c2F)cc1 (centres unmarked) [Example 231, 2-[4-[[[6-[4,4-difluoro-2-[4-(trifluoromethyl)phenyl]pyrrolidin-1-yl]-5-fluoro-pyrimidin-4-yl]amino]methyl]phenyl]acetamide]
>50 | >80 | < 0.5 | NC(=O)Cc1ccc(CNc2ncnc(N3CCC[C@@H]3c3ccc(C(F)(F)F)cc3F)c2F)cc1 [Example 232, 2-[4-[[[5-fluoro-6-[(2R)-2-[2-fluoro-4-(trifluoromethyl)phenyl]pyrrolidin-1-yl]pyrimidin-4-yl]amino]methyl]phenyl]acetamide]
>20 | >80 | < 0.5 | CC(=O)N1CCC(CNc2ncnc(N3CCOC[C@@H]3c3ccc(C(F)(F)F)cc3)c2F)CC1 [Example 233, 1-[4-[[[5-fluoro-6-[(3S)-3-[4-(trifluoromethyl)phenyl]morpholin-4-yl]pyrimidin-4-yl]amino]methyl]-1-piperidyl]ethanone]
>0 | >50 | < 1 | O=S1(=O)CCC(O)(CNc2ncnc(N3CCOC[C@@H]3c3ccc(C(F)(F)F)cc3)c2F)CC1 [Example 234, 4-[[[5-fluoro-6-[(3S)-3-[4-(trifluoromethyl)phenyl]morpholin-4-yl]pyrimidin-4-yl]amino]methyl]-1,1-dioxo-thian-4-ol]
>0 | >50 | < 2 | CC1(CNc2ncnc(N3CCOC[C@@H]3c3ccc(C(F)(F)F)cc3)c2F)COC1 [Example 235, 5-fluoro-N-[(3-methyloxetan-3-yl)methyl]-6-[(3S)-3-[4-(trifluoromethyl)phenyl]morpholin-4-yl]pyrimidin-4-amine]
>80 | >80 | < 0.5 | O=S(=O)(NC1CC1)c1ccc(CNc2ncnc(N3CCOC[C@@H]3c3ccc(C(F)(F)F)cc3)c2F)cc1 [Example 236, N-cyclopropyl-4-[[[5-fluoro-6-[(3S)-3-[4-(trifluoromethyl)phenyl]morpholin-4-yl]pyrimidin-4-yl]amino]methyl] benzenesulfonamide]
>80 | >80 | < 0.5 | CS(=O)(=O)N1CCC(CNc2ncnc(N3CCOC[C@@H]3c3ccc(C(F)(F)F)cc3)c2F)CC1 [Example 237, 5-fluoro-N-[(1-methylsulfonyl-4-piperidyl)methyl]-6-[(3S)-3-[4-(trifluoromethyl)phenyl]morpholin-4-yl]pyrimidin-4-amine]
>0 | >50 | < 10 | OC1(CNc2ncnc(N3CCOC[C@@H]3c3ccc(C(F)(F)F)cc3)c2F)CCOC1 (stereo partly drawn) [Example 238, 3-[[[5-fluoro-6-[(3S)-3-[4-(trifluoromethyl)phenyl]morpholin-4-yl]pyrimidin-4-yl]amino]methyl]tetrahydrofuran-3-ol]
>20 | >80 | < 0.5 | OCCC1(CNc2ncnc(N3CCOC[C@@H]3c3ccc(C(F)(F)F)cc3)c2F)CCOCC1 [Example 239, 2-[4-[[[5-fluoro-6-[(3S)-3-[4-(trifluoromethyl)phenyl]morpholin-4-yl]pyrimidin-4-yl]amino]methyl]tetrahydropyran-4-yl]ethanol]
